Results as given in the supplement of paper PMC8967900.

What was measured:
Experiment in all cases: selective drug sensitivity score (sDSS, relative to normal bone marrow) (sDSS (score)); higher = more potent and effective on the cell line relative to normal bone marrow cells
Settings in all cases: 72 h
RPMI-8402 = tested on: RPMI-8402
ALL-PO = tested on: ALL-PO
COG-LL-394h = tested on: COG-LL-394h
NALM-6 = tested on: NALM-6
REH = tested on: REH
SEM cells = tested on: SEM cells
KASUMI-10 = tested on: KASUMI-10
LC4-1 = tested on: LC4-1
RCH-ACV = tested on: RCH-ACV
TANOUE = tested on: TANOUE
SUP-B15 = tested on: SUP-B15
HPB-ALL = tested on: HPB-ALL
COG-LL-319h = tested on: COG-LL-319h
MHH-CALL-2 = tested on: MHH-CALL-2
KASUMI-2 = tested on: KASUMI-2
MHH-CALL-4 = tested on: MHH-CALL-4
CCRF-CEM = tested on: CCRF-CEM
380 = tested on: 380
DND-41 = tested on: DND-41
COG-LL-317 = tested on: COG-LL-317
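Note: ALL cell lines in 384-well plates, five doses spanning 10,000-fold, each plate scaled between vehicle and 100 µmol/L benzalkonium chloride controls, sDSS an adapted area-under-curve metric.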

Compound | selective drug sensitivity score (RPMI-8402) | selective drug sensitivity score (ALL-PO) | selective drug sensitivity score (COG-LL-394h) | selective drug sensitivity score (NALM-6) | selective drug sensitivity score (REH) | selective drug sensitivity score (SEM cells) | selective drug sensitivity score (KASUMI-10) | selective drug sensitivity score (LC4-1) | selective drug sensitivity score (RCH-ACV) | selective drug sensitivity score (TANOUE) | selective drug sensitivity score (SUP-B15) | selective drug sensitivity score (HPB-ALL) | selective drug sensitivity score (COG-LL-319h) | selective drug sensitivity score (MHH-CALL-2) | selective drug sensitivity score (KASUMI-2) | selective drug sensitivity score (MHH-CALL-4) | selective drug sensitivity score (CCRF-CEM) | selective drug sensitivity score 380 | selective drug sensitivity score (DND-41) | selective drug sensitivity score (COG-LL-317)
CNC(=O)c1ccccc1Sc1ccc2c(/C=C/c3ccccn3)n[nH]c2c1 [Axitinib] (top concentration 10000 nM) | 6.06 | 9.16 | 2.96 | 7.86 | 9.36 | 13.1 | 1.86 | 11.8 | 11.1 | -2.94 | 16.4 | 7.56 | 7.96 | -0.34 | 6.56 | -2.44 | 9.26 | 1.56 | 0.16 | 8.26
Cc1c(N)nc([C@H](CC(N)=O)NC[C@H](N)C(N)=O)nc1C(=O)N[C@H](C(=O)N[C@H](C)[C@@H](O)[C@H](C)C(=O)N[C@H](C(=O)NCCc1nc(-c2nc(C(=O)NCCC[S+](C)C)cs2)cs1)[C@@H](C)O)[C@@H](O[C@@H]1O[C@@H](CO)[C@@H](O)[C@H](O)[C@@H]1O[C@H]1O[C@H](CO)[C@@H](O)[C@H](OC(N)=O)[C@@H]1O)c1c[nH]cn1 [Bleomycin] (top concentration 10000 nM) | -1.36 | -1.76 | 2.24 | 5.74 | 9.44 | 11.1 | 1.14 | 0.54 | 7.54 | -1.86 | 6.44 | -1.86 | 7.84 | 3.14 | 6.44 | 4.54 | 1.04 | 4.34 | 1.14 | 5.14
CC(C)C[C@H](NC(=O)[C@H](Cc1ccccc1)NC(=O)c1cnccn1)B(O)O [Bortezomib] (top concentration 1000 nM) | 2.72 | 4.82 | 2.42 | 1.82 | 4.92 | 12.9 | 2.92 | 3.32 | 3.42 | -9.68 | 8.42 | 5.22 | 4.02 | 3.82 | 1.42 | 3.92 | 6.52 | 1.42 | 6.02 | 3.02
CCC/C=C/C=C/C(=O)O[C@H]1/C(=C/C(=O)OC)C[C@H]2C[C@H]([C@@H](C)O)OC(=O)C[C@H](O)C[C@@H]3C[C@H](OC(C)=O)C(C)(C)[C@](O)(C[C@@H]4C/C(=C/C(=O)OC)C[C@H](/C=C/C(C)(C)[C@]1(O)O2)O4)O3 [Bryostatin_1] (top concentration 100 nM) | -4.52 | -7.12 | -5.92 | -7.12 | -7.12 | -7.12 | 6.78 | 30.6 | -7.12 | -6.82 | 15.6 | -7.12 | -7.12 | 8.68 | -7.12 | -7.12 | -7.12 | -7.12 | 0.88 | -6.82
CO[C@H]1CC[C@H](N2C(=O)CNc3ncc(-c4ccc(C(C)(C)O)nc4)nc32)CC1 [CC-223] (top concentration 10000 nM) | 0.62 | 0.22 | -2.28 | 1.42 | 4.22 | 0.72 | -1.38 | 0.42 | 9.62 | -3.88 | -1.38 | -0.28 | 5.12 | 6.42 | 7.92 | 1.52 | 4.42 | 13 | 1.32 | -0.48
CN(C)c1cc2c(cc1Sc1nc3c(N)nccc3n1CCNCC(C)(C)C)OCO2 [CUDC-305] (top concentration 10000 nM) | 1.42 | 7.52 | -1.28 | 4.72 | 3.32 | 5.12 | 3.52 | -0.98 | 4.02 | -6.68 | 3.22 | 4.42 | -2.48 | 1.02 | -0.28 | 0.92 | 3.32 | 3.22 | 5.92 | 7.62
CO[C@H]1C(=O)[C@]2(C)[C@@H](OC)C[C@H]3OC[C@@]3(OC(C)=O)[C@H]2[C@H](OC(=O)c2ccccc2)[C@]2(O)C[C@H](OC(=O)[C@H](O)[C@@H](NC(=O)OC(C)(C)C)c3ccccc3)C(C)=C1C2(C)C [Cabazitaxel] (top concentration 1000 nM) | 15.5 | 15.1 | 6.08 | 15.9 | 17.9 | 19.5 | 12.4 | 22.4 | 22.9 | -11.5 | 21.9 | 11.6 | 16.9 | 15.9 | 17.5 | 3.58 | 20.5 | 25.7 | -4.32 | 26.2
C=CC(=O)Nc1cc2c(Nc3ccc(F)c(Cl)c3)ncnc2cc1OCCCN1CCOCC1 [Canertinib] (top concentration 10000 nM) | -1.54 | 2.86 | 1.56 | -1.34 | 0.26 | 2.56 | 4.66 | 2.76 | 1.26 | -7.24 | 3.16 | 0.76 | 3.36 | 3.16 | 1.86 | 1.66 | 1.56 | 3.16 | 1.36 | 2.96
CC(C)C[C@H](NC(=O)[C@H](CCc1ccccc1)NC(=O)CN1CCOCC1)C(=O)N[C@@H](Cc1ccccc1)C(=O)N[C@@H](CC(C)C)C(=O)[C@@]1(C)CO1 [Carfilzomib] (top concentration 1000 nM) | -2.74 | 4.76 | 0.26 | 1.06 | 3.16 | 8.56 | 0.36 | 2.36 | 0.86 | -8.24 | 4.56 | 3.96 | 2.56 | 1.56 | -0.04 | 1.56 | 4.86 | 0.06 | 5.36 | 1.06
O=C(c1ccc(F)c(F)c1Nc1ccc(I)cc1F)N1CC(O)([C@@H]2CCCCN2)C1 [Cobimetinib] (top concentration 1000 nM) | -3.68 | 0.92 | -2.48 | 2.62 | -3.68 | -2.48 | -3.68 | -0.68 | -3.68 | -3.68 | 6.62 | -3.68 | -1.28 | 0.42 | 4.22 | 2.62 | -3.58 | 0.82 | 2.62 | -3.68
COc1c(OCCCN2CCOCC2)ccc2c1N=C(NC(=O)c1cnc(N)nc1)N1CCN=C21 [Copanlisib] (top concentration 1000 nM) | 2.58 | 8.28 | -0.82 | 8.18 | 8.28 | 4.18 | -1.32 | -4.22 | 22.2 | -6.52 | -2.12 | 0.48 | 3.18 | 6.18 | 4.18 | 9.28 | 10.2 | 14.4 | -2.72 | 6.08
Cn1c(=O)n(-c2ccc(C(C)(C)C#N)cc2)c2c3cc(-c4cnc5ccccc5c4)ccc3ncc21 [Dactolisib] (top concentration 1000 nM) | 7.76 | 4.56 | -3.94 | 6.36 | 12.9 | 10.4 | -1.04 | 5.16 | 21.3 | -2.54 | 10.3 | 1.36 | -7.44 | 9.36 | 9.06 | 4.06 | 12.9 | 17.5 | 5.66 | 2.26
O=C(/C=C/c1cccnc1)NCCCCC1CCN(C(=O)c2ccccc2)CC1 [Daporinad] (top concentration 1000 nM) | 16.3 | 13.8 | -4.44 | 15.6 | 15.5 | 17.2 | 12.1 | 14.2 | 19.5 | 7.66 | 19.4 | 7.96 | 9.76 | 11.4 | 8.66 | 7.66 | 8.56 | 14.7 | 19.9 | 17.7
CC(=O)N(O)CCCCCNC(=O)CCC(=O)N(O)CCCCCNC(=O)CCC(=O)N(O)CCCCCN [Deferoxamine] (top concentration 10000 nM) | 2.06 | 2.56 | 0.76 | 5.06 | 2.46 | 2.66 | 3.06 | 1.76 | 3.86 | 3.46 | 4.76 | 4.06 | 7.86 | 7.66 | -0.74 | -0.84 | 6.86 | 1.96 | 5.16 | 18.4
Cc1cc(Nc2cc(N3CCN(C)CC3)nc(/C=C/c3ccccc3)n2)n[nH]1 [ENMD-2076] (top concentration 10000 nM) | 1.44 | 10.3 | 1.44 | 5.44 | 4.14 | 15 | 9.14 | 7.64 | 8.84 | -9.16 | 4.74 | 4.44 | 5.54 | 5.44 | -4.76 | 0.34 | 5.04 | 2.54 | -0.46 | 5.14
Cc1cnc(Nc2ccc(OCCN3CCCC3)cc2)nc1Nc1cccc(S(=O)(=O)NC(C)(C)C)c1 [Fedratinib] (top concentration 10000 nM) | -2.16 | 3.24 | 0.14 | -1.26 | -2.76 | 2.74 | 4.94 | -0.36 | -1.06 | -7.06 | -0.66 | 0.14 | 4.64 | -0.26 | -6.16 | -1.36 | -1.76 | -6.96 | 3.94 | -3.36
